# Test results: patent publication US9670259B2, “Method of inhibiting angiogenesis using inhibitors of G-protein-coupled receptor kinase interacting protein-1 (GIT1)” (University of Rochester, priority 2013, dated 2017)
# How the values were obtained:
# Format in all cases: cell-based, human
# Hey1 = Hey1 mRNA (qRT-PCR) and protein (western blot) after GIT1 depletion with siRNA in HUVECs; conditions: compared to control siRNA
# Description: (§1) Human umbilical vein endothelial cells (HUVECs) were isolated and grown in Medium 200 with low serum growth supplement (Cascade Biologics, Inc., Portland, Oreg.) as described previously (Carmeliet et al., Nature 436:193 (2005), which is hereby incorporated by reference in its entirety). GIT1 siRNA ([…]) (SEQ ID NO: 21) and control non-silencing siRNA([…]) (SEQ ID NO: 22) were designed and synthesized (Ambion) and Dll4 siRNA was purchased (Santa Cruz). The siRNA were transfected at 100 nM for 48 h as previously described by our laboratory (Yin et al., Mol. Cell Biol., 24:875 (2004), which is hereby incorporated by reference in its entirety). […]
# (§2) For immunoblotting, cells were lysed in RIPA buffer (150 mM NaCl, 1% Nonidet P-40, […], 0.1% SDS, 50 mM Tris-HCl, pH 8.0). Protein concentrations in the lysates were determined. […] After incubating with fluorescence-conjugated secondary antibodies, immunoreactive proteins were visualized by an Odyssey infrared imaging system (LI-COR Biotechnology, Nebraska). […]
# (§3) Total RNA from retinas and lungs of GIT1 WT and KO mice or HUVECs was obtained using TRIzol reagent (Invitrogen) according to the manufacturer's protocol. […] Target genes mRNA expression and mitochondrial DNA content were determined by qRT-PCR (Applied Biosystems). […]
# Dll4 = Dll4 mRNA (qRT-PCR) and protein (western blot) after GIT1 depletion with siRNA in HUVECs; conditions: siRNA 48 h, compared to control siRNA
# Description: as §1, §2, §3
# Notch1 = Notch1 expression and cleavage (N1-ICD) after GIT1 depletion with siRNA in HUVECs; conditions: siRNA treated
# Description: Human umbilical vein endothelial cells (HUVECs) were isolated and grown in Medium 200 with low serum growth supplement (Cascade Biologics, Inc., Portland, Oreg.) as described previously (Carmeliet et al., Nature 436:193 (2005), which is hereby incorporated by reference in its entirety). GIT1 siRNA ([…]) (SEQ ID NO: 21) and control non-silencing siRNA([…]) (SEQ ID NO: 22) were designed and synthesized (Ambion) and Dll4 siRNA was purchased (Santa Cruz). The siRNA were transfected at 100 nM for 48 h as previously described by our laboratory (Yin et al., Mol. Cell Biol., 24:875 (2004), which is hereby incorporated by reference in its entirety). HEK293 cells were cultured in Dulbecco's modified Eagle's medium supplemented with 10% fetal bovine serum (FBS), penicillin, and streptomycin at 37° C. in 5% CO2. HEK293T cells were transfected by Lipofectamine/plus (Invitrogen).
# For immunoblotting, cells were lysed in RIPA buffer (150 mM NaCl, 1% Nonidet P-40, […], 0.1% SDS, 50 mM Tris-HCl, pH 8.0). Protein concentrations in the lysates were determined. The protein samples were separated by SDS-PAGE, transferred to nitrocellulose membranes, and incubated with appropriate primary antibodies. After incubating with fluorescence-conjugated secondary antibodies, immunoreactive proteins were visualized by an Odyssey infrared imaging system (LI-COR Biotechnology, Nebraska). […]
# ERK1/2 = experiment: VEGF induced ERK1/2 activation in HUVEC infected with SHD-Flag lentivirus; conditions: lentivirus overexpression, VEGF 10 ng/mL
# Description: (§4) In an effort to identify the potential GIT1 inhibitor peptides, a flag-tagged SHD domain of GIT1 (SHD-Flag) was cloned into a lentivirus vector.
# (§5) HUVECs were seeded on 6 well plate at 80% confluence. The next day, cells were infected with control and SHD-Flag containing Lentivirus with Polybrene. After 1 day, infection media was changed with fresh complete M200 media (containing 5% FBS+1% Penicillin-Streptomycin and 2% LSGS). After 48 hours, cells were serum starved with serum free M200 media for 1 hour and stimulated with VEGF (10 ng/mL) for different time points ranging from 0 to 30 minutes. Next cells were lysed and used for western blot analysis to measure PLCγ and ERK1/2 activation. […] No effect of SHD overexpression on VEGF induced ERK1/2 activation was observed. Flag tagged SHD expression in HUVECs were confirmed by detecting Flag in the lysate
# PLCγ = experiment: VEGF induced PLCγ activation in HUVEC infected with SHD-Flag lentivirus; conditions: lentivirus overexpression, VEGF 10 ng/mL
# Description: as §4, §5
# HUVEC = HUVEC tube formation on matrigel after SHD overexpression; conditions: HUVECs with VEGF on growth factor reduced matrigel, 16 hours, compared to control
# Description: In addition to PLCγ signaling, the effect of SHD overexpression on HUVEC tube formation in vitro was also assessed. Endothelial cells reorganize themselves in a 3D matrix like matrigel and form tubes which is an index of in vitro angiogenesis. After 48 hours, cells were cultured at a constant number (10^4 cells/well) with VEGF on growth factor reduced matrigel (30 uL) coated 96 well plate and incubated for 16 hours.
Molecule,increase of Hey1 mRNA expression (Hey1),increase of Hey1 protein expression (Hey1),increase of Dll4 mRNA expression (Dll4),increase of Dll4 protein expression (Dll4),Notch1 expression (Notch1),enhancement of expression of N1-ICD (Notch1; normalized to total Notch1),VEGF induced ERK1/2 activation (ERK1/2),VEGF induced PLCγ activation (PLCγ),formation of tube-like structures (HUVEC)
"GIT1 siRNA: siRNA AAGCTGCCAAGAAGAAGCTAC (SEQ ID NO: 21), synthesized (Ambion) (listed as DNA, chemistry not given here)",5.2±0.57 fold,3.0±0.3 fold,3.2±0.6 fold,6.3±0.3 fold,no change,1.7±0.4 fold,–,–,–
"SHD-Flag: flag-tagged SHD domain of GIT1 (residues 250-420 of SEQ ID NO: 1) cloned into a lentivirus vector (protein, listed as Homo sapiens, Flag tag; lentivirus vector) QMADSLDLSELAKAAKKKLQALSNRLFEELAMDVYDEVDRRENDAVWLATQNHSTLVTERSAVPFLPVNPEYSATRNQGRQKLARFNAREFATLIIDILSEAKRRQQGKSLSSPTDNLELSLRSQSDLDDQHDYDSVASDEDTDQEPLRSTGATRSNRARSMDSSDLSDGA",–,–,–,–,–,–,No effect,blocked VEGF induced PLCγ activation,inhibited the formation of tube-like structures
